Experimental data: the supplement of paper PMC6965134
± gives the standard deviation of the averaged measurements. Values belong to the compound of their own block, whether it stands above or below them.

Assay: TIMS collisional cross section (CCS, N2) of the lipid ion; higher = larger ion cross section
Details: ionization mode: negative, one isomer drawn
Description: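 Lipid extracts of human plasma (NIST SRM 1950), mouse liver or HeLa cells were separated by nanoflow C18 LC (30 min gradient) and analysed by TIMS-PASEF on a timsTOF Pro. Ion mobility was calibrated with the Agilent tuning mix (negative mode ions) and converted to collisional cross sections (Mason–Schamp, N2).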

[1] = sample type: Human plasma, ion (formula + adduct): [C43H78NO8P-H] 1-
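Further: lipids from MTBE extraction, five replicate injections per sample, 100 ms TIMS ramp spanning 0.6–1.95 Vs/cm², lipid identity assigned from PASEF MS/MS spectra.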

TIMS collisional cross section (sample type: Human plasma, ion (formula + adduct): [C46H80NO7P+HCOO] 1-): 296.7 Å²
TIMS collisional cross section (sample type: Human plasma, ion (formula + adduct): [C46H80NO7P-CH3] 1-): 280.2 Å²
TIMS collisional cross section (sample type: Mouse Liver, ion (formula + adduct): [C46H80NO7P-CH3] 1-): 279.6 Å²
Structure (SMILES): CC/C=C\C/C=C\C/C=C\C/C=C\C/C=C\C/C=C\CCC(=O)O[C@H](CO/C=C\CCCCCCCCCCCCCC)COP(=O)([O-])OCC[N+](C)(C)C [PC P- 16:0@_22:6]

Structure (SMILES): CCCCCCCCCCCCCC/C=C\OC[C@H](COP(=O)([O-])OCC[N+](C)(C)C)OC(=O)CCCCCCCCCCCCCCC [PC P- 16:0_16:0]
TIMS collisional cross section (sample type: Human plasma, ion (formula + adduct): [C40H80NO7P+HCOO] 1-): 287.8 Å²
TIMS collisional cross section (sample type: Mouse Liver, ion (formula + adduct): [C40H80NO7P-CH3] 1-): 267.55 ± 2 Å²

TIMS collisional cross section (sample type: Human plasma, ion (formula + adduct): [C46H82NO7P+HCOO] 1-): 296.1 Å²
Structure (SMILES): CC/C=C\C/C=C\C/C=C\C/C=C\C/C=C\CCCC(=O)O[C@H](CO/C=C\CCCCCCCCCCCCCCCC)COP(=O)([O-])OCC[N+](C)(C)C [PC P- 18:0@_20:5]

TIMS collisional cross section (sample type: Mouse Liver, ion (formula + adduct): [C48H84NO7P-CH3] 1-): 285.8 Å²
Structure (SMILES): CC/C=C\C/C=C\C/C=C\C/C=C\C/C=C\C/C=C\CCC(=O)O[C@H](CO/C=C\CCCCCCCCCCCCCCCC)COP(=O)([O-])OCC[N+](C)(C)C [PC P- 18:0@_22:6]

TIMS collisional cross section (sample type: Human plasma, ion (formula + adduct): [C46H88NO7P-CH3] 1-): 285.4 Å²
Structure (SMILES): CCCCC/C=C\C/C=C\CCCCCCCC(=O)O[C@H](CO/C=C\CCCCCCCCCCCCCCCCCC)COP(=O)([O-])OCC[N+](C)(C)C [PC P- 20:0@_18:2]

TIMS collisional cross section (sample type: Mouse Liver, ion (formula + adduct): [C42H72NO8P-H] 1-): 271.6 Å²
Structure (SMILES): CC/C=C\C/C=C\C/C=C\C/C=C\C/C=C\C/C=C\CCC(=O)O[C@H](COC(=O)CCCCCCCCCCCCCC)COP(=O)(O)OCCN [PE 15:0_22:6]

TIMS collisional cross section (sample type: Human plasma, ion (formula + adduct): [C43H74NO8P-H] 1-): 275 Å²
Structure (SMILES): CC/C=C\C/C=C\C/C=C\C/C=C\C/C=C\C/C=C\CCC(=O)OC(COC(=O)CCCCCCCCCCCCCCC)COP(=O)(O)OCCN (configuration not stated) [PE 16:0@_22:6]

TIMS collisional cross section (sample type: Mouse Liver, ion (formula + adduct): [C37H74NO8P-H] 1-): 263.3 Å²
Structure (SMILES): CCCCCCCCCCCCCCCC(=O)OCC(COP(=O)(O)OCCN)OC(=O)CCCCCCCCCCCCCCC (configuration not stated) [PE 16:0_16:0]

TIMS collisional cross section (sample type: Human plasma, ion (formula + adduct): [C39H76NO8P-H] 1-): 268.4 Å²
TIMS collisional cross section (sample type: Mouse Liver, ion (formula + adduct): [C39H76NO8P-H] 1-): 268.4 Å²
Structure (SMILES): CCCCCCCC/C=C\CCCCCCCC(=O)OC(COC(=O)CCCCCCCCCCCCCCC)COP(=O)(O)OCCN (configuration not stated) [PE 16:0_18:1]

TIMS collisional cross section (sample type: Human plasma, ion (formula + adduct): [C39H74NO8P-H] 1-): 266.6 Å²
TIMS collisional cross section (sample type: Mouse Liver, ion (formula + adduct): [C39H74NO8P-H] 1-): 266.6 Å²
Structure (SMILES): CCCCC/C=C\C/C=C\CCCCCCCC(=O)OC(COC(=O)CCCCCCCCCCCCCCC)COP(=O)(O)OCCN (configuration not stated) [PE 16:0_18:2]

TIMS collisional cross section (sample type: Mouse Liver, ion (formula + adduct): [C39H72NO8P-H] 1-): 264.9 Å²
Structure (SMILES): CC/C=C\C/C=C\C/C=C\CCCCCCCC(=O)O[C@H](COC(=O)CCCCCCCCCCCCCCC)COP(=O)(O)OCCN [PE 16:0_18:3]

TIMS collisional cross section (sample type: Mouse Liver, ion (formula + adduct): [C40H78NO8P-H] 1-): 271.2 Å²
Structure (SMILES): CCCCCCCCC/C=C\CCCCCCCC(=O)O[C@H](COC(=O)CCCCCCCCCCCCCCC)COP(=O)(O)OCCN [PE 16:0_19:1]

TIMS collisional cross section (sample type: Mouse Liver, ion (formula + adduct): [C41H80NO8P-H] 1-): 275.2 Å²
Structure (SMILES): CCCCCCCC/C=C\CCCCCCCCCC(=O)O[C@H](COC(=O)CCCCCCCCCCCCCCC)COP(=O)(O)OCCN [PE 16:0_20:1]

Structure (SMILES): CCCCC/C=C\C/C=C\C/C=C\C/C=C\CCCC(=O)O[C@H](COC(=O)CCCCCCCCCCCCCCC)COP(=O)(O)OCCN [PE 16:0_20:4]
TIMS collisional cross section (sample type: Mouse Liver, ion (formula + adduct): [C41H74NO8P-H] 1-): 270.7 ± 0.46 Å²

TIMS collisional cross section [1]: 276.8 Å²
Structure (SMILES): CCCCC/C=C\C/C=C\C/C=C\C/C=C\CCCCCC(=O)O[C@H](COC(=O)CCCCCCCCCCCCCCC)COP(=O)(O)OCCN [PE 16:0_22:4]

TIMS collisional cross section (sample type: Mouse Liver, ion (formula + adduct): [C43H74NO8P-H] 1-): 274.62 ± 0.25 Å²
Structure (SMILES): CC/C=C\C/C=C\C/C=C\C/C=C\C/C=C\C/C=C\CCC(=O)OC(COC(=O)CCCCCCCCCCCCCCC)COP(=O)(O)OCCN (configuration not stated) [PE 16:0_22:6]

TIMS collisional cross section (sample type: Human plasma, ion (formula + adduct): [C37H72NO8P-H] 1-): 261.6 Å²
TIMS collisional cross section (sample type: Mouse Liver, ion (formula + adduct): [C37H72NO8P-H] 1-): 261.6 Å²
Structure (SMILES): CCCCCC/C=C\CCCCCCCC(=O)OC[C@H](COP(=O)(O)OCCN)OC(=O)CCCCCCCCCCCCCCC [PE 16:1_16:0]

Structure (SMILES): CCCCCC/C=C\CCCCCCCC(=O)OCC(COP(=O)(O)OCCN)OC(=O)CCCCCCC/C=C\CCCCCC (configuration not stated) [PE 16:1_16:1]
TIMS collisional cross section (sample type: Mouse Liver, ion (formula + adduct): [C37H70NO8P-H] 1-): 259.3 Å²

TIMS collisional cross section (sample type: Mouse Liver, ion (formula + adduct): [C38H72NO8P-H] 1-): 263.2 Å²
Structure (SMILES): CCCCCC/C=C\CCCCCCCC(=O)OC[C@H](COP(=O)(O)OCCN)OC(=O)CCCCCCC/C=C\CCCCCCC [PE 16:1_17:1]

TIMS collisional cross section (sample type: Mouse Liver, ion (formula + adduct): [C41H70NO8P-H] 1-): 267.1 Å²
Structure (SMILES): CC/C=C\C/C=C\C/C=C\C/C=C\C/C=C\CCCC(=O)O[C@H](COC(=O)CCCCCCC/C=C\CCCCCC)COP(=O)(O)OCCN [PE 16:1_20:5]

TIMS collisional cross section (sample type: Mouse Liver, ion (formula + adduct): [C40H76NO8P-H] 1-): 269.4 Å²
Structure (SMILES): CCCCC/C=C\C/C=C\CCCCCCCC(=O)O[C@H](COC(=O)CCCCCCCCCCCCCCCC)COP(=O)(O)OCCN [PE 17:0_18:2]

TIMS collisional cross section (sample type: Mouse Liver, ion (formula + adduct): [C42H76NO8P-H] 1-): 273.9 Å²
Structure (SMILES): CCCCC/C=C\C/C=C\C/C=C\C/C=C\CCCC(=O)O[C@H](COC(=O)CCCCCCCCCCCCCCCC)COP(=O)(O)OCCN [PE 17:0_20:4]

TIMS collisional cross section (sample type: Mouse Liver, ion (formula + adduct): [C40H74NO8P-H] 1-): 267.7 Å²
Structure (SMILES): CCCCC/C=C\C/C=C\CCCCCCCC(=O)O[C@H](COC(=O)CCCCCCC/C=C\CCCCCCC)COP(=O)(O)OCCN [PE 17:1_18:2]

TIMS collisional cross section (sample type: Mouse Liver, ion (formula + adduct): [C42H74NO8P-H] 1-): 271.6 Å²
Structure (SMILES): CCCCC/C=C\C/C=C\C/C=C\C/C=C\CCCC(=O)O[C@H](COC(=O)CCCCCCC/C=C\CCCCCCC)COP(=O)(O)OCCN [PE 17:1_20:4]

TIMS collisional cross section (sample type: Mouse Liver, ion (formula + adduct): [C44H74NO8P-H] 1-): 275.5 Å²
Structure (SMILES): CC/C=C\C/C=C\C/C=C\C/C=C\C/C=C\C/C=C\CCC(=O)O[C@H](COC(=O)CCCCCCC/C=C\CCCCCCC)COP(=O)(O)OCCN [PE 17:1_22:6]

TIMS collisional cross section (sample type: Human plasma, ion (formula + adduct): [C41H78NO8P-H] 1-): 273.4 Å²
Structure (SMILES): CCCCC/C=C\C/C=C\CCCCCCCC(=O)OC(COC(=O)CCCCCCCCCCCCCCCCC)COP(=O)(O)OCCN (configuration not stated) [PE 18:0@_18:2]

TIMS collisional cross section (sample type: Human plasma, ion (formula + adduct): [C45H78NO8P+AcO] 1-): 297.5 Å²
Structure (SMILES): CC/C=C\C/C=C\C/C=C\C/C=C\C/C=C\C/C=C\CCC(=O)OC(COC(=O)CCCCCCCCCCCCCCCCC)COP(=O)(O)OCCN (configuration not stated) [PE 18:0@_22:6]

TIMS collisional cross section (sample type: Mouse Liver, ion (formula + adduct): [C39H78NO8P-H] 1-): 269.5 Å²
Structure (SMILES): CCCCCCCCCCCCCCCCCC(=O)OC[C@H](COP(=O)(O)OCCN)OC(=O)CCCCCCCCCCCCCCC [PE 18:0_16:0]

TIMS collisional cross section (sample type: Mouse Liver, ion (formula + adduct): [C41H82NO8P-H] 1-): 275.1 Å²
Structure (SMILES): CCCCCCCCCCCCCCCCCC(=O)OCC(COP(=O)(O)OCCN)OC(=O)CCCCCCCCCCCCCCCCC (configuration not stated) [PE 18:0_18:0]

TIMS collisional cross section (sample type: Human plasma, ion (formula + adduct): [C41H80NO8P-H] 1-): 274.6 Å²
Structure (SMILES): CCCCCCCC/C=C\CCCCCCCC(=O)OC(COC(=O)CCCCCCCCCCCCCCCCC)COP(=O)(O)OCCN (configuration not stated) [PE 18:0_18:1]

TIMS collisional cross section (sample type: Mouse Liver, ion (formula + adduct): [C41H78NO8P-H] 1-): 272.8 Å²
Structure (SMILES): CCCCC/C=C\C/C=C\CCCCCCCC(=O)OC(COC(=O)CCCCCCCCCCCCCCCCC)COP(=O)(O)OCCN (configuration not stated) [PE 18:0_18:2]

TIMS collisional cross section (sample type: Mouse Liver, ion (formula + adduct): [C42H82NO8P-H] 1-): 278 Å²
Structure (SMILES): CCCCCCCCC/C=C\CCCCCCCC(=O)O[C@H](COC(=O)CCCCCCCCCCCCCCCCC)COP(=O)(O)OCCN [PE 18:0_19:1]

TIMS collisional cross section (sample type: Mouse Liver, ion (formula + adduct): [C43H84NO8P-H] 1-): 282 Å²
Structure (SMILES): CCCCCCCC/C=C\CCCCCCCCCC(=O)O[C@H](COC(=O)CCCCCCCCCCCCCCCCC)COP(=O)(O)OCCN [PE 18:0_20:1]

TIMS collisional cross section [1]: 276.8 Å²
TIMS collisional cross section (sample type: Mouse Liver, ion (formula + adduct): [C43H78NO8P-H] 1-): 276.57 ± 0.29 Å²
Structure (SMILES): CCCCC/C=C\C/C=C\C/C=C\C/C=C\CCCC(=O)O[C@H](COC(=O)CCCCCCCCCCCCCCCCC)COP(=O)(O)OCCN [PE 18:0_20:4]

TIMS collisional cross section (sample type: Human plasma, ion (formula + adduct): [C45H78NO8P-H] 1-): 281.8 Å²
Structure (SMILES): CC/C=C\C/C=C\C/C=C\C/C=C\C/C=C\C/C=C\CCC(=O)OC(COC(=O)CCCCCCCCCCCCCCCCC)COP(=O)(O)OCCN (configuration not stated) [PE 18:0_22:6]
